The record followed here is ChEMBL document CHEMBL1132432, “Urea-PETT compounds as a new class of HIV-1 reverse transcriptase inhibitors. 3. Synthesis and further structure-activity relationship studies of PETT analogues” (J Med Chem, 1999).

Usually IC50 stands for the concentration that gives 50% inhibition. High values mean a need for much substance, low ones inhibition by little substance.

Test [1] deals with Human immunodeficiency virus type 1 reverse transcriptase (Human immunodeficiency virus 1) (UniProt Q72547). The settings on record: MT4.
Description: Inhibitory activity against HIV-1 Asn 103 mutant in MT-4 cells.
For test [2] the target is unchanged. The settings on record: MT4. This is another data set of the same source.
Description: Inhibitory activity against HIV-1 Ile 100 mutant in MT-4 cells.
Test [3] concerns the target T1, Human immunodeficiency virus type 1 reverse transcriptase (Human immunodeficiency virus 1, UniProt Q72547). Kind of test: HIV-1 reverse transcriptase inhibitory activity against Ile 100 mutant using (poly)rC600*(oligo)dGT as template primer.
Test [4] deals with T1, Human immunodeficiency virus type 1 reverse transcriptase. Kind of test: HIV-1 reverse transcriptase inhibitory activity against Asn103 mutant using (poly)rC600*(oligo)dGT as template primer.
For test [5] the target is unchanged. Kind of test: HIV-1 reverse transcriptase inhibitory activity against Cys181 mutant using (poly)rC600*(oligo)dGT as template primer.
The target is the same in test [6]. Kind of test: HIV-1 reverse transcriptase inhibitory activity against Wild Type Reverse transcriptase using (poly)rC600*(oligo)dGT as template primer.
In test [7] the target is Human immunodeficiency virus type 1 reverse transcriptase (Human immunodeficiency virus 1) (UniProt Q72547). The settings on record: MT4. This is another data set of the same source.
Description: Inhibition of wild type HIV-1 in MT-4 cell culture (human T cell line)
Test [8] has the same target. The settings on record: MT4. This is another data set of the same source.
Description: Inhibitory activity against HIV-1 Cys 181 mutant in MT-4 cells.
A further test deals with MT4. Briefly: Inhibitory activity against HIV-1 Wild Type in MT-4 cell culture (human T-cell line with 50% human AB serum). The class given is functional. The settings on record: read-out: ED50 (the source's name).

Bounds are passed on as bounds.

In the case of `CC(=O)c1ccc(F)c(C2CC2NC(=O)Nc2ccc(Br)cn2)c1O` (stereo not drawn), the ED50 in test [1] worked out at 561 nM; in test [2], 50 nM; in test [7], 21 nM; in test [8] it was 113 nM. Further, the IC50 in test [3] turned out to be 18 nM; in [4], 70 nM; in test [5], 8 nM; in test [6], 3.5 nM.

With `CCC(=O)c1ccc(F)c(C2CC2NC(=O)Nc2ccc(Cl)cn2)c1O` (stereo in doubt; 19) [listing 1 of 2 here], the ED50 in test [1] was 200 nM; in test [2], 100 nM; in [7], 9 nM; in test [8], 100 nM.

In the case of `CCOc1ccc(F)c(CCNC(=O)Nc2ccc(Br)cn2)c1Cl`, the ED50 in test [1] is over 5000 nM; in [2], over 10000 nM; in test [7], 70 nM; in [8], over 5000 nM. Besides, the IC50 was 1680 nM in test [3], over 2400 nM in test [4] and 240 nM in test [5].

Consider `CCOc1ccc(F)c(C2CC2NC(=O)Nc2cc(Cl)cnn2)c1Cl` (stereo not drawn), for which the ED50 in test [1] was over 5000 nM; in test [2], 4400 nM; in test [7] it was 78 nM; in [8], 2300 nM. Besides, the half-maximal inhibitory concentration (IC50) was 140 nM in test [3], over 2600 nM in test [4], 260 nM in test [5] and 16 nM in test [6].

For the compound `CCC(=O)c1ccc(F)c(C2CC2NC(=O)Nc2ccc(Br)cn2)c1O` (stereo in doubt; 18) [listing 1 of 2 here], in the test on MT4, the EC50 was determined as 56 nM. For the same compound, the IC50 in test [3] was 14 nM; in [4], 41 nM; in [5], 10 nM; in test [6], 4.8 nM.

As to `CCOc1ccc(Cl)c(C2CC2NC(=O)Nc2cc(Cl)cnn2)c1F` (stereo not drawn), the ED50 is over 5000 nM in test [1], over 5000 nM in test [2], 18 nM in test [7] and over 5000 nM in test [8]. Further, the IC50 in test [3] is 1000 nM; in test [4] it was over 2600 nM; in test [5], 1000 nM; in [6], 5.2 nM.

In the case of `CCC(=O)c1ccc(F)c(C2CC2NC(=O)Nc2ccc(C#N)cn2)c1O` (stereo not drawn), the ED50 in test [1] worked out at 137 nM; in test [2], 69 nM; in [7] it was 3 nM; in test [8], 46 nM. The IC50 in test [3] is 32 nM; in test [4], 97 nM; in test [5], 16 nM; in [6], 6.8 nM.

With `CCOc1ccc(F)c(C2CC2NC(=O)Nc2ccc(Cl)cn2)c1F` (stereo not drawn), the ED50 in test [1] was determined as 544 nM; in test [2], 816 nM; in test [7] it was 31 nM; in test [8], 163 nM. Also, the IC50 in test [3] came to 81 nM; in [4], 473 nM; in test [5], 14 nM; in [6], 1.6 nM.

As to `CCC(=O)c1ccc(F)c(C2CC2NC(=O)Nc2ccc(Cl)cn2)c1O` (stereo in doubt; 13) [listing 1 of 2 here], the IC50 is 76 nM in test [3], 57 nM in test [4], 51 nM in [5] and 9 nM in [6].

Take `O=C(Nc1ccc(Cl)cn1)NC1CC1c1c(F)ccc(O)c1Cl` (stereo not drawn): the ED50 was over 5000 nM in test [1], over 5000 nM in [2], 110 nM in [7] and over 5000 nM in [8]. Further, the IC50 in test [3] is 4100 nM; in test [4], over 2700 nM; in [5], 4300 nM; in [6], 135 nM.

`CCOc1ccc(F)c(C2CC2NC(=O)Nc2ccc(C#N)cn2)c1Cl` (stereo not drawn): the ED50 in test [1] was over 5000 nM; in test [2] it was 234 nM; in test [7], 8 nM; in test [8], 270 nM. Also, the IC50 in test [3] worked out at 200 nM; in test [4], 183 nM; in test [5], 130 nM; in test [6], 4.3 nM.

As to `COc1c(C(C)=O)ccc(F)c1CCNC(=O)Nc1ccc(Cl)cn1`, the ED50 in test [1] was over 5000 nM; in [2] it was over 5000 nM; in test [7], 819 nM; in test [8], over 5000 nM. The IC50 in [3] is 26200 nM; in test [4] it was over 2700 nM; in [5] it was 12700 nM; in test [6], 224 nM.

For `CCC(=O)c1ccc(F)c(C2CC2NC(=O)Nc2ccc(Br)cn2)c1O` (stereo in doubt; 17) [listing 1 of 2 here], the ED50 in test [1] worked out at 80 nM; in [2] it was 100 nM; in [7], 8 nM; in [8], 69 nM.

Take `CCC(=O)c1ccc(F)c(C2CC2NC(=O)Nc2ccc(Cl)cn2)c1O` (stereo in doubt; 13) [listing 2 of 2 here]: the ED50 in test [1] was determined as 350 nM; in test [2], 220 nM; in [7] it was 27 nM; in test [8], 340 nM.

Take `Cc1ccnc2c1NC(=O)c1cccnc1N2C1CC1` [NEVIRAPINE]: the EC50 in the test on MT4 (Homo sapiens, MT4) is over 5000 nM.

For `CCOc1ccc(Cl)c(C2CC2NC(=O)Nc2ccc(C#N)cn2)c1F` (stereo not drawn), the ED50 in test [1] stood at 400 nM; in test [2] it was 53 nM; in test [7], 4 nM; in [8] it was 200 nM. For the same compound, the IC50 was 27 nM in test [3], 192 nM in test [4], 20 nM in [5] and 2.7 nM in test [6].

With `COc1ccc(OC)c(CCNC(=O)Nc2ccc(Cl)cn2)c1F`, the ED50 in [1] was 1130 nM; in test [2], 3800 nM; in test [7], 28 nM; in [8], over 5000 nM. For the same compound, the figures for the IC50 in [3], in [4] and in test [5] were 140 nM, 224 nM and 140 nM, respectively.

Take `CCC(=O)c1ccc(F)c(C2CC2NC(=O)Nc2ccc(Cl)cn2)c1O` (stereo in doubt; 19) [listing 2 of 2 here]: the EC50 with MT4 (Homo sapiens, MT4) turned out to be 51 nM. For the same compound, the IC50 in test [3] was 115 nM; in test [4] it was 82 nM; in test [5], 19 nM; in test [6], 3.2 nM.

Turning to `CCC(=O)c1ccc(F)c(C2CC2NC(=O)Nc2ccc(Cl)cn2)c1O` (stereo in doubt; 20) [listing 1 of 2 here], the EC50 in the test on MT4 was found to be 80 nM. The 50% inhibitory concentration (IC50) in [3] was found to be 14 nM; in test [4], 77 nM; in test [5], 4 nM; in [6], 2.7 nM.

`CCC(=O)c1ccc(F)c(C2CC2NC(=O)Nc2ccc(Br)cn2)c1O` (stereo in doubt; 18) [listing 2 of 2 here]: the ED50 was found to be 358 nM in test [1], 53 nM in test [2], 12 nM in test [7] and 95 nM in test [8].

With `O=C1Nc2ccc(Cl)cc2[C@@](C#CC2CC2)(C(F)(F)F)O1` [EFAVIRENZ], in the test with MT4 (Homo sapiens, MT4), the EC50 came to 50 nM.

On to `CC(=O)c1ccc(F)c(C2CC2NC(=O)Nc2ccc(C#N)cn2)c1O` (stereo not drawn), for which the ED50 in test [1] was 104 nM; in [2], 40 nM; in [7] it was 8 nM; in test [8], 230 nM. Besides, the IC50 in [3] was 13 nM; in test [4], 98 nM; in [5], 16 nM; in test [6], 5.3 nM.

On to `COc1ccc(C(C)=O)c(F)c1CCNC(=O)Nc1ccc(Cl)cn1`, for which the ED50 in test [1] was 3280 nM; in test [2], over 20000 nM; in test [7], 273 nM; in [8], over 20000 nM. Further, the IC50 in test [3] is 11200 nM; in test [4], over 2700 nM; in test [5], 10100 nM; in test [6], 109 nM.

Regarding `COc1ccc2c(c1)N(C(=O)OC(C)C)C(CSC)C(S)=N2` (stereo not drawn), the ED50 in [1] worked out at 500 nM; in test [2], 72 nM; in test [7] it was 9 nM; in test [8], 73 nM. Moreover, the EC50 with MT4 (Homo sapiens, MT4) was 320 nM. Also, the IC50 in test [3] is 9 nM; in test [4], 56 nM; in [5] it was 9 nM; in [6] it was 8 nM.

For `CCC(=O)c1ccc(F)c(C2CC2NC(=O)Nc2ccc(Cl)cn2)c1O` (stereo in doubt; 20) [listing 2 of 2 here], the ED50 worked out at 470 nM in test [1], 75 nM in [2], 13 nM in test [7] and 100 nM in test [8].

On to `CCC(=O)c1ccc(F)c(C2CC2NC(=O)Nc2ccc(Br)cn2)c1O` (stereo in doubt; 17) [listing 2 of 2 here], for which, in the test on MT4 (Homo sapiens, MT4), the EC50 worked out at 58 nM. Also, the 50% inhibitory concentration (IC50) in [3] was 171 nM; in [4], 83 nM; in test [5], 16 nM; in [6], 3.8 nM.

Consider `CCOc1ccc(Cl)c(C2CC2NC(=O)Nc2ccc(Cl)cn2)c1F` (stereo not drawn), for which the ED50 in [1] worked out at 780 nM; in test [2] it was 139 nM; in test [7], 9 nM; in test [8], 104 nM. The IC50 in test [3] turned out to be 52 nM; in [4] it was 237 nM; in [5], 21 nM; in test [6], 1.3 nM.

With `CC(C)Nc1cccnc1N1CCN(C(=O)c2cc3cc(NS(C)(=O)=O)ccc3[nH]2)CC1` [DELAVIRDINE], the EC50 in the test with MT4 (Homo sapiens, MT4) turned out to be 320 nM.

On to `CN(C)c1ccc(F)c(CCNC(=O)Nc2ccc(Br)cn2)c1F`, for which the ED50 was over 20000 nM in test [1], over 20000 nM in test [2], 500 nM in test [7] and over 20000 nM in test [8]. In addition, the IC50 in [3] was over 2500 nM; in [4], over 2500 nM; in [5], 1500 nM.
